From US6960594B2, “Thiophene and furan 2,5-dicarboxamides useful in the treatment of cancer” (Shire BioChem Inc., priority 1998, dated 2005)
Where two headings read alike, the source gives them in different places.

Experiments:
placental αvβ3 = biological target: T1, placental αvβ3 (Homo sapiens, UniProt P05106+P06756); assay: Fibrinogen binding to immobilized αvβ3
T1 construct: placental αvβ3 at 0.5 ug/mL; from tissue; host or cells: placenta
Procedure: (§1) The wells of plastic microtiter plates were coated overnight at 4° C. with purified active αIIbβ3 (Calbiochem) or placental αvβ3 at 0.5 ug/mL (100 uL/well) in a buffer containing 150 mM NaCl, 20 mM Tris, pH 7.4, 1 mM MgCl2, 0.2 mM MnCl2, and including 1 mM CaCl2 for αIIbβ3. Blocking of nonspecific sites was achieved by incubating the wells with 35 mg/mL bovine serum albumin (BSA) for at least 2 hours at 37° C. Biotinylated-fibrinogen (10 nM) was added in 0.2 mL binding buffer (100 mM NaCl, 50 mM Tris, pH 7.4, 1 mM MgCl2, 0.2 mM MnCl2 and 1 mg/mL BSA including 1 mM CaCl2 for αIIbβ3) to the wells in triplicate in the absence or presence of increasing concentrations of compounds of interest (0.001-100 uM) and further incubated for 2 hours at 37° C. Nonbound fibrinogen was removed by five washes with binding buffer. Avidin conjugated to alkaline phosphatase (Sigma), diluted in binding buffer, was added and incubated for two hours at 37° C. The plates were washed five times with binding buffer, and after addition of the substrate PNPP (Pierce), the enzyme activity was measured by the absorbance at 405 nm.

GP IIb-IIIa (αIIbβ3) = biological target: T2, GP IIb-IIIa (αIIbβ3) (Homo sapiens, UniProt P05106+P08514); assay: Fibrinogen binding to immobilized GP IIb-IIIa (αIIbβ3)
T2 construct: purchased Calbiochem
Procedure: as §1

αvβ3 = biological target: T3, αvβ3 (Homo sapiens, UniProt P05106+P06756); assay: Cell adhesion assay, K562-tr on osteopontin; format: cell-based
T3 construct: expressed in transfected cells; host or cells: K562
Procedure: (§2) The wells of 96-well plates (Immunolon) were coated, by incubation overnight at 4° C., with 5 ug/mL vitronectin, 2 ug/mL osteopontin, or fibronectin or 10 mg/mL BSA in PBS. The protein solution was flicked out and the wells were blocked with 10 mg/mL BSA (0.1 mL) for 1-2 hours at 37° C. […] Cells were lifted with trypsin-EDTA and washed two times with Hank's balanced salt solution minus cations (Sigma) supplemented with 1 mM MgCl2 Cells (75,000 cells/well) were added to coated plates in triplicate and allowed to attach at 37° C. for 1 hour in the presence or absence of specific antibodies (5 ug/mL) or 10-fold dilutions of compounds of interest starting at 10 uM. Nonadherent cells were removed by gentle washing twice with PBS. The adherent cells were solubilized with 1% triton x-100 and detected using a fluorescence plate reader (DYNEX Technologies). The number of attached cells was calculated based upon standard curves for each cell line used in the experiment.

αvβ5 = biological target: T4, αvβ5 (Homo sapiens, UniProt P06756+P18084); assay: Cell adhesion assay, HT29 on vitronectin; format: cell-based
T4 construct: Cells HT29, K562, or K562 transfected with αvβ3; endogenous in cells; host or cells: HT29
Procedure: as §2

α5β1 = biological target: T5, α5β1 (Homo sapiens, UniProt P05556+P08648); assay: Cell adhesion assay, K562 on fibronectin; format: cell-based; conditions: K562 cells, adhesion to fibronectin, 1 hour
T5 construct: Cells HT29, K562, or K562 transfected with αvβ3; endogenous in cells; host or cells: K562
Procedure: The wells of 96-well plates (Immunolon) were coated, by incubation overnight at 4° C., with 5 ug/mL vitronectin, 2 ug/mL osteopontin, or fibronectin or 10 mg/mL BSA in PBS. The protein solution was flicked out and the wells were blocked with 10 mg/mL BSA (0.1 mL) for 1-2 hours at 37° C. Cells HT29, K562, or K562 transfected with αvβ3 (Blystone et al., 1994) were loaded with a fluorescent marker, 5-chloromethylfluorescein diacetate (Molecular Probes, Eugene, Oreg.) for 1 hour at 37° C., then incubated in fresh medium without the fluorescent marker for 1 hour. Cells were lifted with trypsin-EDTA and washed two times with Hank's balanced salt solution minus cations (Sigma) supplemented with 1 mM MgCl2 Cells (75,000 cells/well) were added to coated plates in triplicate and allowed to attach at 37° C. for 1 hour in the presence or absence of specific antibodies (5 ug/mL) or 10-fold dilutions of compounds of interest starting at 10 uM. Nonadherent cells were removed by gentle washing twice with PBS. The adherent cells were solubilized with 1% triton x-100 and detected using a fluorescence plate reader (DYNEX Technologies). The number of attached cells was calculated based upon standard curves for each cell line used in the experiment. Non-specific cell attachment (attachment to wells coated with BSA) was always less than 5%.

HMVEC = assay: Cell proliferation and cytotoxicity MTT assay, HMVEC; format: cell-based; conditions: 72 hours culture
Procedure: (§3) The wells of microtiter plates were seeded with 2000 cells/well T24, 2500 cells/well HT29 or 5000 cells/well HMVEC (Cell Systems) in 100 uL, followed by an overnight culture for cell adhesion. The next day, the media is supplemented with 100 uL of 10-fold dilution of compound of interest starting at 10 uM. Following culture for 72 hours, 3-(4,5-dimethyl-2-thiazolyl)-2,5-diphenyltetrazolium bromide (MTT; Sigma) at 2 mg/mL was added to each well (50 uL/well) and further incubated for 4 hours at 37° C. The medium was flicked out and 200 uL of a 1:1 solution of ethanol:acetone followed by 25 uL of glycine buffer (0.1 M glycine, 0.1M NaCl, pH 10.5) is added and the color measured by the absorbance at 570 nm.

HT29 = assay: Cell proliferation and cytotoxicity MTT assay, HT29; format: cell-based
Procedure: as §3

[1] = system: Chick chorioallantoic membrane (CAM) capillary formation driven by VPF/VEGF165; assay: Chick chorioallantoic membrane (CAM) mesh assay; format: in vivo, chicken; conditions: significant if >25%
Procedure: Fertilized white leghorn chicken eggs (SPAFAS Inc., Norwich, Conn.) were received at day 0 and incubated for 3 days at 37 C with constant humidity. On day 3, eggs were rinsed with 70% ethanol and opened into 100 mm^2 tissue culture coated Petri dishes under aseptic conditions. The embryos were then returned to a humidified 38 C incubator for 7-9 additional days.
Vitrogen (Collagen Biomaterials, Palo Alto, Calif.) at a final concentration of 0.73 mg/mL and Matrigel (Becton Dickinson, Bedford, Mass.) at a final concentration of 10 mg/mL was directly pipetted onto Nylon meshes with 250 μm^2 openings which were cut into 4 mm×4 mm squares and autoclaved. Polymerization of meshes were under aseptic conditions, on bacteriological Petri dishes. The polymerization conditions for each substrate were identical; after mixing with or without 250 μg of VPF/VEGF165 (Peprotech, Rocky Hill, N.J.) and/or compounds of interest, 40 μL were pipetted onto each mesh in a bacteriological Petri dish. The Petri dish was placed in a humidified 37 C incubator with 5% CO2 for 30 minutes to allow polymerization followed by an incubation at 4° C. for 2 hours.
In a tissue culture enclosure, meshes were placed onto the periphery of the CAM of a day 12-14 embryo, excluding areas containing major vessels. The embryos were then returned to the humidified 38° C. incubator with 3% CO2 for 24 to 48 additional hours.
Embryos were removed from the incubator and meshes were viewed under a dissecting microscope for gross evaluation. Injection of 400 μL FITC dextran, MW 2,000,000 (Sigma, St. Louis, Mo.) through glass microcapillary tubes by infusion into the umbilical vein was performed at a rate of 200 μl per minute. The FITC dextran was allowed to circulate for 5 minutes and 3.7% formaldehyde in PBS was applied directly on each mesh. The embryos were then incubated at 40° C. for 5 minutes and the meshes were dissected off the CAM and fixed in 3.7% formaldehyde for 10 minutes to overnight.
After fixation, meshes were mounted on slides with 90% glycerol in PBS and visualized on an inverted fluorescence microscope. A Nikon Diaphot with a Sony DXC-151A camera attached to the side port was used for capture of images and analysis was with the NIH Image 1.61 software program. For each mesh, 5 random staggered images (approximately 600 μm each) were captured. The areas of high intensity were highlighted and measured. Results are expressed as ability to suppress capillary formation after subtraction from negative control. Values were calculated as a inhibition, considering 100% the capillary density achieved by VPF in the presence of vitrogen alone minus the bakground levels in the absence of VPF. Negative values indicated angiogenic stimulation above the VPF positive control.

T3 sequence (P06756 31-889 limits assumed): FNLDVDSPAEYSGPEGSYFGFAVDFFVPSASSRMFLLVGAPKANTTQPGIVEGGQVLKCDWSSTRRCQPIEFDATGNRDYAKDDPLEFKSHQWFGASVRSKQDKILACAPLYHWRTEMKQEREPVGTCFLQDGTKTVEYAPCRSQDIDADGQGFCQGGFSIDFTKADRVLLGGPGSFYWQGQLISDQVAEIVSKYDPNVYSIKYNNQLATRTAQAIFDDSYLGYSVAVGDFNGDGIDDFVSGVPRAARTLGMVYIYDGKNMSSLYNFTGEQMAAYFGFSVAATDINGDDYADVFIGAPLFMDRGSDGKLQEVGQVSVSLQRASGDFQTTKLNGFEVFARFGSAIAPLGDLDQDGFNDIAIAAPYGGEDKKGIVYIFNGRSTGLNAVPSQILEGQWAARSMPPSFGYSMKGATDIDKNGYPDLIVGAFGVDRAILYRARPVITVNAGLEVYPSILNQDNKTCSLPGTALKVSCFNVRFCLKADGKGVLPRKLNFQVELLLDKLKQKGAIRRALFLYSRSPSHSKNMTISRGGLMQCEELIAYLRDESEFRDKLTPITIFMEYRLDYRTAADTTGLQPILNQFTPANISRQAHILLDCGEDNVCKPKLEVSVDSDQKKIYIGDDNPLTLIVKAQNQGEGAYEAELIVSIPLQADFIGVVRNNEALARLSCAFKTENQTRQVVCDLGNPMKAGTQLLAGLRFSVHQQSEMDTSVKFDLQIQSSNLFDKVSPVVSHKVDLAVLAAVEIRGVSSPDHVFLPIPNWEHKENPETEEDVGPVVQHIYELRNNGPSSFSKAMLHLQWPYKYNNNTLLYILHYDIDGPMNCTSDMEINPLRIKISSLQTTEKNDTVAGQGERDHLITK
T3 sequence (P06756 891-1048 partner limits assumed): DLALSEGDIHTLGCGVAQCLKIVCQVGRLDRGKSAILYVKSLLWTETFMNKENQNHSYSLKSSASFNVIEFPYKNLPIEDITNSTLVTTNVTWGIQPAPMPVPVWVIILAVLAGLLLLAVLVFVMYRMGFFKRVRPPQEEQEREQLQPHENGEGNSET
T3 sequence (P05106 27-788): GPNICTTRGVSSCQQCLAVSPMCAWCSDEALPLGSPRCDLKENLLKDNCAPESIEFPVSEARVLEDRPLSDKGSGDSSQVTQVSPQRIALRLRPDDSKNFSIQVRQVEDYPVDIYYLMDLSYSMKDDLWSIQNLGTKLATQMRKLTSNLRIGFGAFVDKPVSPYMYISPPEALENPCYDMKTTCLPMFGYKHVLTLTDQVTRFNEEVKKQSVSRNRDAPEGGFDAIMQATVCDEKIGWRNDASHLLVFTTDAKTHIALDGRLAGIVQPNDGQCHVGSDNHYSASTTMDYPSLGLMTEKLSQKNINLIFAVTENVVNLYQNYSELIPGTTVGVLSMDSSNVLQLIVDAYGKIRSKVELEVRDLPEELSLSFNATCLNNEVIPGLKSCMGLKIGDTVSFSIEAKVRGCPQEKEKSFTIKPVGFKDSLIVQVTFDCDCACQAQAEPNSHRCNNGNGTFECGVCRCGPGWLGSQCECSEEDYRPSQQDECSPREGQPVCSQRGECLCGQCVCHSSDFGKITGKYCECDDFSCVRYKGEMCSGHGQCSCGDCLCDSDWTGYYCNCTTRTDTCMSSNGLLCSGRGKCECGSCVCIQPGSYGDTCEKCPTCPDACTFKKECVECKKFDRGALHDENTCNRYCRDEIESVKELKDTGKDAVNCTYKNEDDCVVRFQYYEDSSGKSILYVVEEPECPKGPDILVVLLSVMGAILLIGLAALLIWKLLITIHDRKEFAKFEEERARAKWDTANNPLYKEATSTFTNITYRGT
T1 sequence (P06756 31-889 limits assumed): as the sequence (P06756 31-889 limits assumed) above
T1 sequence (P06756 891-1048 partner limits assumed): as the sequence (P06756 891-1048 partner limits assumed) above
T1 sequence (P05106 27-788): as the sequence (P05106 27-788) above
T4 sequence (P06756 31-889 limits assumed): as the sequence (P06756 31-889 limits assumed) above
T4 sequence (P06756 891-1048 partner limits assumed): as the sequence (P06756 891-1048 partner limits assumed) above
T4 sequence (P18084 24-799): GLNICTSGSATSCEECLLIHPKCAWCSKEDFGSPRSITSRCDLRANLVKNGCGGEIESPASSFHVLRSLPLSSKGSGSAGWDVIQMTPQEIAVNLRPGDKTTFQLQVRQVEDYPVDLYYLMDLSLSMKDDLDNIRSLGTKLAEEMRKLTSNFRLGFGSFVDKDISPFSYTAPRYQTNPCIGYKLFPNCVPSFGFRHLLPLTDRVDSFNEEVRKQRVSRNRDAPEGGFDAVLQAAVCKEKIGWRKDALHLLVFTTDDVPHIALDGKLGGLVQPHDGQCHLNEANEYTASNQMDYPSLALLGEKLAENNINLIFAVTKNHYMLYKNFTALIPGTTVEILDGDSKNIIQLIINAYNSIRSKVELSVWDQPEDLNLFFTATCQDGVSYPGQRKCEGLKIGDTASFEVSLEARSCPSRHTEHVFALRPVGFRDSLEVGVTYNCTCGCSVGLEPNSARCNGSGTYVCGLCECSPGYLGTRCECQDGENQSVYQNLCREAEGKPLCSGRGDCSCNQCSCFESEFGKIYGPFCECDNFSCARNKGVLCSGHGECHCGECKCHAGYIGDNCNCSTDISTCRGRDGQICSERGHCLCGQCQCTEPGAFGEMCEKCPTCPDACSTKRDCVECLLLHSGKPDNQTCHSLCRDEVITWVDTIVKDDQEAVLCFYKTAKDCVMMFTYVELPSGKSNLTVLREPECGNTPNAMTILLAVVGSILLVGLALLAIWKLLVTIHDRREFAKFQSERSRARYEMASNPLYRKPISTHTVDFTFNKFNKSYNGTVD
T2 sequence (P08514 32-887 limits assumed): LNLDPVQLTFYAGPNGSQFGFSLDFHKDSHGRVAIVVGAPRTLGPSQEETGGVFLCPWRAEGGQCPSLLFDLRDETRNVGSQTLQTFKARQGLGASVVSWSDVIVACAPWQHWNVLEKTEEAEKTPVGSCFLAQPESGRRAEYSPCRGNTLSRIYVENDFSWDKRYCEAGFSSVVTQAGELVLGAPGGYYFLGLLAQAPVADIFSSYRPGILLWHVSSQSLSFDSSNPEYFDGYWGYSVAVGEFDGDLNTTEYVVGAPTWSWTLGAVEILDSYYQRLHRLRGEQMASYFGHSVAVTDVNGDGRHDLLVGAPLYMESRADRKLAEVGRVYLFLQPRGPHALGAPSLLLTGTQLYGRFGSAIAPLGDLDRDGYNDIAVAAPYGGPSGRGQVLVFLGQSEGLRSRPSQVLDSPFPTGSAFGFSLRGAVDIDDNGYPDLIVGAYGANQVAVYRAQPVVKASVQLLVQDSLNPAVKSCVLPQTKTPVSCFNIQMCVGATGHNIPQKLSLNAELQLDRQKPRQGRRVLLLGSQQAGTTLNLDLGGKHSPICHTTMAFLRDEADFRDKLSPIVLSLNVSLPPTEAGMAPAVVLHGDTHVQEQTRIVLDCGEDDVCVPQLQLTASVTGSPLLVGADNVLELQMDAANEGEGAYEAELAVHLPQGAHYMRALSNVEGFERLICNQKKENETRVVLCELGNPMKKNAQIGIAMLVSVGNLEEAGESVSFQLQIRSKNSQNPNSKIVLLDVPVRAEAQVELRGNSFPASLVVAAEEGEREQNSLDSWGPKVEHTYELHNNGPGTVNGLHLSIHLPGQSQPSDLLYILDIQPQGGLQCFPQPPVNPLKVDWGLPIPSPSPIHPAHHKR
T2 sequence (P08514 891-1039 partner limits assumed): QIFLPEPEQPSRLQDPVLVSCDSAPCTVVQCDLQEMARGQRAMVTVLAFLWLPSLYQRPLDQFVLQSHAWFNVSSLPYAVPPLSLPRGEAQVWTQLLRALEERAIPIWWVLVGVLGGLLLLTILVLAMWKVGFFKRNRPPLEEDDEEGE
T2 sequence (P05106 27-788): as the sequence (P05106 27-788) above

Q: With N=C(N)NCCNC(=O)c1ccc(C(=O)NCC(Nc2ncccn2)C(=O)O)s1.O=C(O)C(F)(F)F.O=C(O)C(F)(F)F (stereo not shown) [Compound XXX, 3-{[5-(2-guanidino-ethylcarbamoyl)-thiophene-2-carbonyl]-amino}-2-(pyrimidin-2-ylamino)-propionic acid bis trifluoroacetic acid salt] as the molecule, how does the IC50 (placental αvβ3) read?
A: 150 nM

Q: And the IC50 (GP IIb-IIIa (αIIbβ3))?
A: 690 nM

Q: What about the IC50 (αvβ3) of the same molecule?
A: 3400 nM

Q: What about the IC50 (αvβ5) of the same molecule?
A: > 10000 nM

Q: What about the IC50 (α5β1) of the same molecule?
A: > 10000 nM

Q: And the IC50 (HMVEC; HMVEC)?
A: > 10000 nM

Q: What about the IC50 (HT29; Homo sapiens, HT-29, 72 hours culture) of the same molecule?
A: > 10000 nM

Q: And the “% of inhibition at 33 μg/mesh in the presence of VEGF” value [1]?
A: 31%

Q: What does the source list for “(2S)2-Benzenesulfonylamino-3-[5-(2-guanidinyl-ethylcarbamoyl)-thiophen-2-carbonyl]-amino propionic acid hydrochloride salt [Compound XI]”?
A: IC50 (placental αvβ3; biotinylated-fibrinogen (10 nM) binding to immobilized αvβ3, read-out: IC50 αvβ3): 0.58 nM; IC50 (GP IIb-IIIa (αIIbβ3); biotinylated-fibrinogen (10 nM) binding to immobilized αIIbβ3, read-out: IC50 αIIbβ3): 0.31 nM; IC50 (αvβ3; K562 transfected with αvβ3, adhesion to osteopontin, 1 hour, read-out: IC50 K562-tr Osteopontin (αvβ3)): 87 nM; IC50 (αvβ5; HT29 cells, adhesion to vitronectin, 1 hour, read-out: IC50 HT29 Vitronectin (αvβ5)): 210 nM; IC50 (α5β1): 5300 nM; IC50 (HMVEC): 870 nM; IC50 (HT29; 72 hours culture): 9900 nM; % of inhibition at 33 μg/mesh in the presence of VEGF [1]: 38%
